Consider 15 compounds from ChEMBL document CHEMBL3758159, “Polycyclic amines as chloroquine resistance modulating agents in Plasmodium falciparum” (Bioorg Med Chem Lett, 2016).

In general, IC50 refers to the point on the concentration scale where inhibition reaches its midpoint. In general, inhibition refers to how much of the control response was suppressed.

One series relates to CHO. Put plainly: Cytotoxicity against CHO cells by MTT assay. Particulars: Cricetulus griseus. The class given is cell-based.
Series [1] has as its system Plasmodium falciparum. Put plainly: Antiplasmodial activity against chloroquine sensitive Plasmodium falciparum NF54 by spectroscopic method. Format: functional, organism-based.
A further series is filed under the species Rattus norvegicus. Kind of series: Inhibition of voltage-gated calcium channel in Wistar rat synaptoneurosomes at 100 uM after 30 mins by fluorescent ratiometric indicator method.
For series [2], the system named is Plasmodium falciparum Dd2. Kind of series: Inhibition of voltage-gated calcium channel in Plasmodium flaciparum Dd2 cells assessed as reversal of choloroquine resistance at 1 uM relative to control. Also noted: scale not given: the % may be the effect or the level left.
In series [3] the test system is Plasmodium falciparum Dd2. Put plainly: Inhibition of voltage-gated calcium channel in Plasmodium flaciparum Dd2 cells assessed as potentiation of choloroquine induced antimalarial activity by measuring ratio of chloroquine IC50 in presence to absence of compound at 1 uM.
For series [4], the system named is Plasmodium falciparum. Kind of series: Antiplasmodial activity against multidrug resistant Plasmodium falciparum Dd2 by spectroscopic method. The class given is functional, organism-based.
Series [5] can be described thus: Selectivity index, ratio of IC50 for CHO cells to IC50 for chloroquine sensitive Plasmodium falciparum NF54. The class given is toxicity, cell-based. Particulars: hamster, read-out: Ratio IC50.
A short description of series [6]: Inhibition of voltage-gated calcium channel in Wistar rat synaptoneurosomes after 30 mins by fluorescent ratiometric indicator method.
Series [7] deals with Plasmodium falciparum NF54. Kind of series: Inhibition of voltage-gated calcium channel in Plasmodium flaciparum NF54 cells assessed as potentiation of choloroquine induced antimalarial activity by measuring chloroquine IC50 in presence of compound at 1 uM.
Series [8] has as its system Plasmodium falciparum Dd2. Kind of series: Inhibition of voltage-gated calcium channel in Plasmodium flaciparum Dd2 cells assessed as reversal of choloroquine resistance at 0.5 uM relative to control. Also noted: scale not given: the % may be the effect or the level left.
The subject of series [9] is Plasmodium falciparum Dd2. Kind of series: Inhibition of voltage-gated calcium channel in Plasmodium flaciparum Dd2 cells assessed as reversal of choloroquine resistance at 0.8 uM relative to control. Also noted: scale not given: the % may be the effect or the level left.

Activity calls are given as the source filed them. The calls are words filed in the database; no cut-off is given here.

As to `N#Cc1c2ccccc2cn1CCCNC12CC3CC(CC(C3)C1)C2`, the IC50 in the series with CHO came to 8.2 µM; with Plasmodium falciparum [1] it was 3.83 µM; with Plasmodium falciparum [4] it was 3.89 µM; in series [6] it was 100 µM. The inhibition in the series filed under Rattus norvegicus amounted to 54%. In series [2], the Activity worked out at 42%. In addition, in series [3], the Ratio IC50 amounted to 0.58. Also, the selectivity ratio in series [5] turned out to be 2.1. Also, the result in series [7] was inactive.

In the case of `O=[N+]([O-])c1ccc(CNC23CC4CC(CC(C4)C2)C3)cc1`, the IC50 is > 349 µM with CHO and 74 µM in the series on Plasmodium falciparum [1]. In addition, in the series filed under Rattus norvegicus, the inhibition was 86%. For the same compound, the selectivity ratio in [5] was > 4.7.

For the compound `O=C(OCCNC12OC3C4C5CC(C6C5C3C61)C42)c1cccc(/C=C/[N+](=O)[O-])c1` (stereo unspecified), the half-maximal inhibitory concentration (IC50) in the series with CHO was > 254 µM; in the series with Plasmodium falciparum [1] it was 26.2 µM; with Plasmodium falciparum [4] it was 34.5 µM; in series [6], 0.98 µM. Also, the inhibition in the series filed under Rattus norvegicus is > 95%. Besides, the Activity in series [2] came out at 45%. Besides, in [3], the Ratio IC50 came to 0.55. Further, in series [5], the selectivity ratio is > 9.7. In addition, the outcome in series [7] was inactive.

On to `O=[N+]([O-])c1ccc(NCCCNC23CC4CC(CC(C4)C2)C3)c([N+](=O)[O-])c1`, for which the half-inhibitory concentration (IC50) in the series on CHO came out at 8.01 µM; in the series with Plasmodium falciparum [1], 1.13 µM; with Plasmodium falciparum [4], 18.8 µM. In addition, the inhibition in the series filed under Rattus norvegicus turned out to be 12%. In series [5], the selectivity ratio worked out at 7.1.

On to `COc1ccc(CCN(C)CCCC(C#N)(c2ccc(OC)c(OC)c2)C(C)C)cc1OC` (stereo unspecified), for which the results for the Activity in series [8], in series [2] and in series [9] were 47%, 73% and 63%, respectively. Also, the Ratio IC50 in series [3] was 0.27.

For `COc1ccc(CNC23CC4CC(CC(C4)C2)C3)cc1`, the half-inhibitory concentration (IC50) with CHO was > 368 µM; with Plasmodium falciparum [1] it was 39.4 µM. In addition, the inhibition in the series listed under Rattus norvegicus was determined as 71%. The selectivity ratio in series [5] was > 9.4.

On to `O=[N+]([O-])c1ccc(CNC23OC4C5C6CC(C7C6C4C72)C53)cc1` (stereo unspecified), for which the half-maximal inhibitory concentration (IC50) in the series on CHO is > 322 µM; with Plasmodium falciparum [1] it was 0.718 µM; with Plasmodium falciparum [4], 54.8 µM. Moreover, in the series listed under Rattus norvegicus, the inhibition is 48%. Further, in series [2], the Activity came out at 25%. For the same compound, in series [3], the Ratio IC50 amounted to 0.65. Besides, in [5], the selectivity ratio was > 449. The outcome in series [7] was inactive.

For `OC12C3C4CC5C6C4C1C6C(C53)N2Cc1ccccc1` (stereo unspecified), the half-maximal inhibitory concentration (IC50) is 84.8 µM with CHO, 7.62 µM in the series on Plasmodium falciparum [1], 13.3 µM in the series on Plasmodium falciparum [4] and 35 µM in [6]. For the same compound, in the series listed under Rattus norvegicus, the inhibition is > 95%. The Activity in series [2] was 64%. The Ratio IC50 in series [3] is 0.36. For the same compound, the selectivity ratio in series [5] worked out at 11.1. Besides, the outcome in series [7] was inactive.

As for `c1ccc(CNC23OC4C5C6CC(C7C6C4C72)C53)cc1` (stereo unspecified), the IC50 is > 10 µM in the series on CHO, > 10 µM in the series with Plasmodium falciparum [1], > 10 µM with Plasmodium falciparum [4] and 86 µM in series [6]. In addition, in the series filed under Rattus norvegicus, the inhibition amounted to 52%. In addition, the result in series [7] was inactive.

For the compound `CN(C)c1cccc2c(S(=O)(=O)NCCCNC34CC5CC(CC(C5)C3)C4)cccc12`, the IC50 came out at 7.4 µM with CHO, 2.83 µM in the series with Plasmodium falciparum [1], 7.01 µM in the series on Plasmodium falciparum [4] and 0.27 µM in [6]. Moreover, in the series filed under Rattus norvegicus, the inhibition is > 95%. Also, the Activity in series [2] amounted to 65%. Moreover, the Ratio IC50 in series [3] was 0.35. Further, the selectivity ratio in [5] was found to be 2.6. Besides, the outcome in series [7] was inactive.

`c1ccc(CNC23CC4CC(CC(C4)C2)C3)cc1`: the half-maximal inhibitory concentration (IC50) is > 414 µM in the series with CHO and 126 µM with Plasmodium falciparum [1]. Besides, in the series filed under Rattus norvegicus, the inhibition was found to be 40%. Further, the selectivity ratio in [5] is > 3.3.

Take `COCCOC(=O)C1=C(C)NC(C)=C(C(=O)OC(C)C)C1c1cccc([N+](=O)[O-])c1` (stereo unspecified) [NIMODIPINE]: the IC50 in [6] is 0.008 µM.

As to `CCN(CC)CCCC(C)Nc1ccnc2cc(Cl)ccc12` (stereo unspecified) [CHLOROQUINE], the IC50 with CHO was determined as 35.8 µM.

`CN(C)c1cccc2cc(S(=O)(=O)NCCN3C4C5C6CC7C8C6C4C8C3(O)C75)ccc12` (stereo unspecified): the IC50 came out at 119 µM with CHO, 3.76 µM in the series with Plasmodium falciparum [1], 6.25 µM in the series on Plasmodium falciparum [4] and 0.48 µM in [6]. Also, the inhibition in the series filed under Rattus norvegicus is > 95%. The Activity in [2] stood at 81%. For the same compound, the Ratio IC50 in series [3] stood at 0.19. Also, the selectivity ratio in [5] came out at 31.7. In addition, the outcome in series [7] was inactive.

For the compound `OC12C3C4CC5C6C4C1C6C(C53)N2CCN1CCN(Cc2ccccc2)CC1` (stereo unspecified), the IC50 is > 265 µM in the series on CHO, 9.09 µM in the series on Plasmodium falciparum [1], 6.28 µM in the series with Plasmodium falciparum [4] and 100 µM in series [6]. The inhibition in the series listed under Rattus norvegicus was determined as 51%. Moreover, the Activity in series [2] stood at 19%. The Ratio IC50 in series [3] is 0.81. The selectivity ratio in [5] is > 29.1. The outcome in series [7] was inactive.
